Test results taken from paper PMC3246799 (Science (New York, N.Y.), 2011).

Target: T1, AHR2-2 (tomcod AHR2) (Microgadus tomcod, UniProt B6E9W5)
T1 sequence (B6E9W5 1-1104): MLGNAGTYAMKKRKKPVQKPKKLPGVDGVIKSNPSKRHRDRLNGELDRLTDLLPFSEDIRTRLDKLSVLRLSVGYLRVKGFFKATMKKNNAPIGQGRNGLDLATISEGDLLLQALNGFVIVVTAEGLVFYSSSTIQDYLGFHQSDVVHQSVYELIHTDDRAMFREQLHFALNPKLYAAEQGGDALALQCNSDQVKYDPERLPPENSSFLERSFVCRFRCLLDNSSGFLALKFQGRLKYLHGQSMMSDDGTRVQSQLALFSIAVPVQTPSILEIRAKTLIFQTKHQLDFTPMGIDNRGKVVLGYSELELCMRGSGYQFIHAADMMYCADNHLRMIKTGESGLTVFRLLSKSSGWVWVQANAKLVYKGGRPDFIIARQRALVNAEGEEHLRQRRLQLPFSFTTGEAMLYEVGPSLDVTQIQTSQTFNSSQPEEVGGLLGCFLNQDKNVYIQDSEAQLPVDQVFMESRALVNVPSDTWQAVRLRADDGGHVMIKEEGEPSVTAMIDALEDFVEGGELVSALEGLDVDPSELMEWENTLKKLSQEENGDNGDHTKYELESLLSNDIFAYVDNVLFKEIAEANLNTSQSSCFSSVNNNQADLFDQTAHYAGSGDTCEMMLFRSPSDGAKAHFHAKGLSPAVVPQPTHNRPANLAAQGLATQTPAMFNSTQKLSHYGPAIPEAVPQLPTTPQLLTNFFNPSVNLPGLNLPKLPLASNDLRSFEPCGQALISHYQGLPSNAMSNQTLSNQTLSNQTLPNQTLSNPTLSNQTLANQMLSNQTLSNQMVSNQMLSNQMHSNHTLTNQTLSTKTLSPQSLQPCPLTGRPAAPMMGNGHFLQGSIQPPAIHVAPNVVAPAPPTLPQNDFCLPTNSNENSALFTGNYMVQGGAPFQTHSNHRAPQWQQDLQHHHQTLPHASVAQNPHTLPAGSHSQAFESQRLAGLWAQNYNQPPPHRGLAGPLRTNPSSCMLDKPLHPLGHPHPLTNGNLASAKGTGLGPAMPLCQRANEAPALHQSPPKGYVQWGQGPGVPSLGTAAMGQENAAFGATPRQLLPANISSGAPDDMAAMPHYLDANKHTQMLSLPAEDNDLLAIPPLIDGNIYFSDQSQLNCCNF
Experiment: saturation binding of [3H]TCDD, velocity sedimentation on sucrose gradients
Details: labelled compound; 0.1 to 12 nM [3H]TCDD; apparent equilibrium constant

Clc1cc2c(cc1Cl)Oc1cc(Cl)c(Cl)cc1O2 [TCDD, 2,3,7,8-tetrachlorodibenzo-p-dioxin]
Kd: 1.27 nM
